The values below are quoted from earlier work in patent publication US20090105222A1, “PREVENTION AND TREATMENT OF […] DISORDERS, INCLUDING STRESS-RELATED DISORDERS” (Cypress Bioscience, Inc., priority 2002, published 2009).

One may read the IC50 as the concentration that inhibits the measured activity by half.

This data set concerns the target NMDA receptor. To be noted: reported in literature (Shuto et al.); read-out: IC50 value, NMDA receptor antagonistic properties.

In the case of `CCN(CC)C(=O)C1(c2ccccc2)CC1CN` (stereo not shown) [milnacipran], the IC50 is around 6.3 µM.
